Data: the supplement of paper PMC10307832

Assays:
Experiment in all cases: relative viability (nuclei count vs DMSO), 5 days (fraction); higher = more cells survive
[1] = system: UMC-11
Procedure, shortened: (§1)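 Five library-drug doses in √10 steps were combined with a fixed anchor-drug dose, or a single drug was given alone, by pin tool to lung cancer cell lines in 1536-well plates the day after seeding. Nuclei were stained and counted after 5 days. Relative viability is the nuclei count in treated wells over that in vehicle wells, taken as the median of duplicate plates.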

[2] = system: NCI-H23
Procedure, shortened: as §1

[3] = system: NCI-H1993
Procedure, shortened: as §1

[4] = system: ABC-1
Procedure, shortened: as §1

[5] = system: A-427
Procedure, shortened: as §1

[6] = system: LC-2-ad
Procedure, shortened: as §1

[7] = system: NCI-H2228
Procedure, shortened: as §1

[8] = system: NCI-H1734
Procedure, shortened: as §1

[9] = system: HCC-15
Procedure, shortened: as §1

[10] = system: SK-LU-1
Procedure, shortened: as §1

[11] = system: NCI-H1650
Procedure, shortened: as §1

[12] = system: NCI-H1793
Procedure, shortened: as §1

[13] = system: EMC-BAC-2
Procedure, shortened: as §1

[14] = system: COR-L23
Procedure, shortened: as §1

[15] = system: NCI-H2023
Procedure, shortened: as §1

[16] = system: NCI-H2405
Procedure, shortened: as §1

[17] = system: NCI-H2009
Procedure, shortened: as §1

[18] = system: ChaGo-K-1
Procedure, shortened: as §1

[19] = system: HCC-366
Procedure, shortened: as §1

[20] = system: HCC-78
Procedure, shortened: as §1

[21] = system: NCI-H1944
Procedure, shortened: as §1

[22] = system: HARA
Procedure, shortened: as §1

[23] = system: NCI-H838
Procedure, shortened: as §1

[24] = system: LK-2
Procedure, shortened: as §1

`Clc1ccc(Nc2nnc(Cc3ccncc3)c3ccccc23)cc1` [Vatalanib] + O=C(c1cc(Cc2n[nH]c(=O)c3ccccc23)ccc1F)N1CCN(C(=O)C2CC2)CC1 [Olaparib] (partner 8 µM) was tested, and the relative viability ([1]; first compound 0.04 µM) was 0.331, the relative viability ([1]; first compound 0.1265 µM) was 0.39 and the relative viability ([1]; first compound 0.4 µM) was 0.318. It also gave a relative viability ([1]; first compound 1.265 µM) of 0.468, a relative viability ([1]; first compound 4 µM) of 0.297 and a relative viability ([2]; first compound 0.04 µM) of 0.306. It also gave a relative viability ([2]; first compound 0.1265 µM) of 0.161, a relative viability ([2]; first compound 0.4 µM) of 0.326 and a relative viability ([2]; first compound 1.265 µM) of 0.305. The relative viability ([2]; first compound 4 µM) was 0.28, the relative viability ([3]; first compound 0.04 µM) was 0.587 and the relative viability ([3]; first compound 0.1265 µM) was 1.08. For the same compound, the relative viability ([3]; first compound 0.4 µM) was 0.879, the relative viability ([3]; first compound 1.265 µM) was 1.11 and the relative viability ([3]; first compound 4 µM) was 1.01. It also gave a relative viability ([4]; first compound 0.04 µM) of 0.642, a relative viability ([4]; first compound 0.1265 µM) of 0.689 and a relative viability ([4]; first compound 0.4 µM) of 0.421. The relative viability ([4]; first compound 4 µM) was 0.869, the relative viability ([5]; first compound 0.04 µM) was 0.664 and the relative viability ([5]; first compound 0.1265 µM) was 0.729. It also gave a relative viability ([5]; first compound 0.4 µM) of 0.768, a relative viability ([5]; first compound 4 µM) of 0.666 and a relative viability ([6]; first compound 0.04 µM) of 0.661. For the same compound, the relative viability ([6]; first compound 0.1265 µM) was 0.67, the relative viability ([6]; first compound 0.4 µM) was 0.686 and the relative viability ([6]; first compound 1.265 µM) was 0.694. The relative viability ([6]; first compound 4 µM) was 0.69, the relative viability ([7]; first compound 0.04 µM) was 0.648 and the relative viability ([7]; first compound 0.1265 µM) was 0.772. For the same compound, the relative viability ([7]; first compound 0.4 µM) was 0.816, the relative viability ([7]; first compound 1.265 µM) was 0.654 and the relative viability ([7]; first compound 4 µM) was 0.598. For the same compound, the relative viability ([8]; first compound 0.04 µM) was 0.64, the relative viability ([8]; first compound 0.1265 µM) was 0.582 and the relative viability ([8]; first compound 0.4 µM) was 0.621. It also gave a relative viability ([8]; first compound 1.265 µM) of 0.609, a relative viability ([8]; first compound 4 µM) of 0.617 and a relative viability ([9]; first compound 0.04 µM) of 0.795. For the same compound, the relative viability ([9]; first compound 0.1265 µM) was 0.723, the relative viability ([9]; first compound 0.4 µM) was 0.781 and the relative viability ([9]; first compound 1.265 µM) was 0.684. The relative viability ([9]; first compound 4 µM) was 0.696, the relative viability ([10]; first compound 0.04 µM) was 0.438 and the relative viability ([10]; first compound 0.1265 µM) was 0.449. It also gave a relative viability ([10]; first compound 0.4 µM) of 0.52, a relative viability ([10]; first compound 1.265 µM) of 0.467 and a relative viability ([10]; first compound 4 µM) of 0.365. The relative viability ([11]; first compound 0.04 µM) was 0.985, the relative viability ([11]; first compound 0.1265 µM) was 0.734 and the relative viability ([11]; first compound 0.4 µM) was 0.852. It also gave a relative viability ([11]; first compound 1.265 µM) of 0.74, a relative viability ([11]; first compound 4 µM) of 0.798 and a relative viability ([12]; first compound 0.04 µM) of 0.871. For the same compound, the relative viability ([12]; first compound 0.1265 µM) was 0.713, the relative viability ([12]; first compound 0.4 µM) was 1.02 and the relative viability ([12]; first compound 1.265 µM) was 0.788. The relative viability ([12]; first compound 4 µM) was 0.78, the relative viability ([13]; first compound 0.04 µM) was 0.476 and the relative viability ([13]; first compound 0.1265 µM) was 0.476. The relative viability ([13]; first compound 0.4 µM) was 0.497, the relative viability ([13]; first compound 4 µM) was 0.492 and the relative viability ([14]; first compound 0.04 µM) was 0.363. It also gave a relative viability ([14]; first compound 0.1265 µM) of 0.356, a relative viability ([14]; first compound 0.4 µM) of 0.402 and a relative viability ([14]; first compound 1.265 µM) of 0.337. It also gave a relative viability ([14]; first compound 4 µM) of 0.345, a relative viability ([15]; first compound 0.04 µM) of 0.403 and a relative viability ([15]; first compound 0.1265 µM) of 0.444. It also gave a relative viability ([15]; first compound 0.4 µM) of 0.447, a relative viability ([15]; first compound 1.265 µM) of 0.48 and a relative viability ([15]; first compound 4 µM) of 0.422. For the same compound, the relative viability ([16]; first compound 0.04 µM) was 0.808, the relative viability ([16]; first compound 0.1265 µM) was 0.807 and the relative viability ([16]; first compound 0.4 µM) was 0.957. It also gave a relative viability ([16]; first compound 4 µM) of 0.87, a relative viability ([17]; first compound 0.04 µM) of 0.703 and a relative viability ([17]; first compound 0.1265 µM) of 0.623. The relative viability ([17]; first compound 0.4 µM) was 0.675, the relative viability ([17]; first compound 1.265 µM) was 0.672 and the relative viability ([17]; first compound 4 µM) was 0.594. For the same compound, the relative viability ([18]; first compound 0.04 µM) was 0.412, the relative viability ([18]; first compound 0.1265 µM) was 0.457 and the relative viability ([18]; first compound 0.4 µM) was 0.466. For the same compound, the relative viability ([18]; first compound 1.265 µM) was 0.42, the relative viability ([18]; first compound 4 µM) was 0.433 and the relative viability ([19]; first compound 0.04 µM) was 0.337. It also gave a relative viability ([19]; first compound 0.1265 µM) of 0.34, a relative viability ([19]; first compound 0.4 µM) of 0.416 and a relative viability ([19]; first compound 1.265 µM) of 0.334. For the same compound, the relative viability ([19]; first compound 4 µM) was 0.303, the relative viability ([20]; first compound 0.04 µM) was 0.899 and the relative viability ([20]; first compound 0.1265 µM) was 0.865. For the same compound, the relative viability ([20]; first compound 0.4 µM) was 0.761, the relative viability ([20]; first compound 1.265 µM) was 0.823 and the relative viability ([20]; first compound 4 µM) was 0.775. For the same compound, the relative viability ([21]; first compound 0.04 µM) was 0.408, the relative viability ([21]; first compound 0.1265 µM) was 0.403 and the relative viability ([21]; first compound 0.4 µM) was 0.417. It also gave a relative viability ([21]; first compound 1.265 µM) of 0.392, a relative viability ([21]; first compound 4 µM) of 0.384 and a relative viability ([22]; first compound 0.04 µM) of 0.713. For the same compound, the relative viability ([22]; first compound 0.1265 µM) was 0.725, the relative viability ([22]; first compound 0.4 µM) was 0.875 and the relative viability ([22]; first compound 1.265 µM) was 0.97. The relative viability ([22]; first compound 4 µM) was 0.823, the relative viability ([23]; first compound 0.04 µM) was 0.774 and the relative viability ([23]; first compound 0.1265 µM) was 0.741. For the same compound, the relative viability ([23]; first compound 0.4 µM) was 0.824, the relative viability ([23]; first compound 1.265 µM) was 0.722 and the relative viability ([23]; first compound 4 µM) was 0.702. For the same compound, the relative viability ([24]; first compound 0.04 µM) was 0.723, the relative viability ([24]; first compound 0.1265 µM) was 0.72 and the relative viability ([24]; first compound 0.4 µM) was 0.792. It also gave a relative viability ([24]; first compound 1.265 µM) of 0.702 and a relative viability ([24]; first compound 4 µM) of 0.816.
